# Data reported in publication PMC9398908, “GLP-1-mediated delivery of tesaglitazar improves obesity and glucose metabolism in male mice” (Nature Metabolism, 2022).
# Several values for one entry are separate records, joined by “and”; a condition that tells them apart may be missing. Equal entries are not always repeated.
# Columns and labels:
# hGLP-1R [1] = target: T1, hGLP-1R (Homo sapiens, UniProt P43220); assay: Ligand-induced Mini-Gαs recruitment to hGLP-1R-GFP (BRET) in HEK293T cells; format: cell-based; conditions: HEK293 cells transfected with human GLP-1R; dose response, Fig. 1a; in words
# T1 construct: host or cells: HEK293T, transient transfection
# T1 sequence (P43220 24-463): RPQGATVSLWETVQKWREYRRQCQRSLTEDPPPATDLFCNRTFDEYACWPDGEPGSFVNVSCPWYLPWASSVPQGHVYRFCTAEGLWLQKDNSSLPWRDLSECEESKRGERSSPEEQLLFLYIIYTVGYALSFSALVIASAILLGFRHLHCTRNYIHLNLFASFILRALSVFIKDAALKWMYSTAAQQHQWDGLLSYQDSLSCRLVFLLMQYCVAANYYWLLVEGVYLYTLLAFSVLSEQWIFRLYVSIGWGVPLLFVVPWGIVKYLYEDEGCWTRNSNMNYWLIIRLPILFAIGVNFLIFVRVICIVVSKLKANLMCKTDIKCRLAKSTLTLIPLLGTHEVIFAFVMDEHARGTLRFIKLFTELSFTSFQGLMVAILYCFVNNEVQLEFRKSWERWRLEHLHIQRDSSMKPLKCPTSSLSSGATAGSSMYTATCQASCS
# Method: (§1) HEK293T cells (700,000 per well) were seeded in six-well plates and incubated to 70% confluency in DMEM (10% FBS, 1% Pen/Strep). Twenty-four hours following seeding, transient transfections were performed using Lipofectamine 2000 (catalogue no. 11668019, Invitrogen) according to the manufacturer’s protocol without including additional transformation carrier DNA.
# (§2) Twenty-four hours following transfection, HEK293T cells or MIN6 cells were washed with PBS and resuspended in FluoroBrite phenol red-free complete media (catalogue no. A1896701, Life Technologies) containing 5% FBS and 2 mM of L-glutamine (catalogue no. 25030081, Life Technologies). 100,000 cells per well were plated into poly-D-lysine-coated (catalogue no. P6403, Sigma-Aldrich) 96-well white polystyrene LumiNunc plates (catalogue no. 10072151, Thermo Fisher Scientific). After 24 h, the media was replaced with PBS (catalogue no. 10010056, Gibco) containing 10 μM of coelenterazine-h (catalogue no. S2011, Promega) or 1:500 dilution of NanoGlo (catalogue no. N1110, Promega). BRET measurements were taken every 30 s–2 min using a PHERAstar FS multi-mode microplate reader. […] The resulting ligand-specific ratiometric BRET signals were normalized to vehicle producing the ‘ligand-induced BRET ratio’[37], followed by an additional normalization step to well-specific baseline readings.
# hGLP-1R [2] = target: T1, hGLP-1R; assay: Ligand-induced hGLP-1R-Rluc8 internalization (BRET) in mouse MIN6 β-cells; format: cell-based; conditions: Fig. 1f, in words
# Method: as §1, §2
# cFOS = cFOS positive neurons in hypothalamic nuclei (ARC, VMH, DMH) after a single s.c. dose (Fig. 7a,b; Extended Data Fig. 4a–c); format: in vivo, mouse
# Method: For cFOS analysis, mice were treated s.c. with a single dose of 150 nmol kg^−1. Tissues were harvested 90 min following drug exposure. Fixed brains were coronally cryosectioned and 35-μm-thick slices were immunolabelled with the monoclonal rabbit anti-cFOS antibody (1:400, Invitrogen, no. MA5-15055) and the antirabbit Alexa546 secondary antibody (1:4,000, Invitrogen, no. A10040). According to the Allen mouse brain atlas, the ARC and the dorsomedial and ventromedial hypothalamic nuclei were captured at ×20 magnification using the Leica SP8 confocal microscope. In each region, the number of cFOS positive cells was counted in a blinded manner using Fiji/ImageJ software. For assessment of central nervous system drug appearance, mice (n = 3–4 each group) were treated with a single s.c. dose of the Cy5-labelled peptides (150 nmol kg^−1). After 90 min, tissues were harvested and processed similar to the cFOS analysis.
# C57BL/6J DIO mice = assay: Urinary albumin:creatinine ratio in DIO mice (Extended Data Fig. 2g); format: in vivo, mouse; conditions: 14-day treatment, 50 nmol kg−1 per day, in words
# From the text: Frozen urine samples from heterozygous GIPR^dn mice in a CD1 background (n = 3) served as positive controls. […] For each treatment group, uACR was computed as a ratio of urinary albumin (mg ml^−1) to urinary creatinine (mg ml^−1).
# hGLP-1R [3] = target: T1, hGLP-1R; assay: hGLP-1R-Rluc8 co-localization with lysosome marker Lamp1-mNeonGreen (BRET) in HEK293T cells; format: cell-based; conditions: HEK293 cells; Fig. 1g; in words
# Method: as §1, §2
compound,measurement,setting,value
"CCO[C@@H](Cc1ccc(OCCc2ccc(OS(C)(=O)=O)cc2)cc1)C(=O)O [tesaglitazar, (S)-2-ethoxy-3-(4-(4-((methylsulfonyl)oxy)phenethoxy)phenyl) propanoic acid]",GLP-1R-mediated Gαs recruitment,hGLP-1R [1],had no effect
same,GLP-1R internalization,hGLP-1R [2],had no effect
same,cFOS (cFos positive neurons in the ARC),"cFOS; Fig. 7b, 47-week-old male DIO mice, single s.c. 150 nmol kg−1, 90 min, individual mice",43 and 38 and 21 and 45
same,cFOS,"cFOS; Suppl. Fig. 4b, animal 1 of the group",55
same,cFOS,"cFOS; Suppl. Fig. 4b, animal 2 of the group",124
same,cFOS,"cFOS; Suppl. Fig. 4b, animal 3 of the group",77
same,cFOS,"cFOS; Suppl. Fig. 4b, animal 4 of the group",96
same,cFOS,"cFOS; Suppl. Fig. 4c, animal 1 of the group",13
same,cFOS,"cFOS; Suppl. Fig. 4c, animal 2 of the group",9
same,cFOS,"cFOS; Suppl. Fig. 4c, animal 3 of the group",15
same,cFOS,"cFOS; Suppl. Fig. 4c, animal 4 of the group",20
same,urinary albumin:creatinine ratio,C57BL/6J DIO mice,likewise not changed
same,lysosomal GLP-1R appearance (GLP-1R-Lamp1 colocalization),hGLP-1R [3],had no effect
